Data from ChEMBL document CHEMBL5120884, “Complex Flavanones from Cryptocarya metcalfiana and Structural Revision of Oboflavanone A” (J Nat Prod, 2022).

Tested on: HCT-116
Assay: Cytotoxicity against human HCT-116 cells incubated for 48 hrs by MTT assay
Format: functional, cell-based
Conditions: HCT-116, 48 h

Row | SMILES | IC50 [µM]
1 | O=C1CCC[C@@H]2C[C@H](C[C@](O)(/C=C/c3ccccc3)O2)c2c(cc(O)c3c2O[C@H](c2ccc(O)cc2)CC3=O)O1 | 4.2
2 | COC(=O)CCC[C@@H]1C[C@@H]2C[C@@](CCc3ccccc3)(Oc3cc4c(c(O)c32)C(=O)C[C@@H](c2ccccc2)O4)O1 | > 10
3 | O=C(O)CCC[C@@H]1C[C@@H]2C[C@@](/C=C/c3ccccc3)(Oc3cc4c(c(O)c32)C(=O)C[C@H](c2ccccc2)O4)O1 | > 10
4 | O=C1C=CC[C@H](C[C@@H]2C[C@@H]3C[C@@](CCc4ccccc4)(Oc4cc5c(c(O)c43)C(=O)C[C@H](c3ccccc3)O5)O2)O1 | 5.8
5 | COC(=O)CCC[C@@H]1C[C@@H]2C[C@@](CCc3ccccc3)(Oc3cc4c(c(O)c32)C(=O)C[C@H](c2ccccc2)O4)O1 | > 10
6 | O=C1C=CC[C@H](C[C@@H]2C[C@@H]3C[C@@](CCc4ccccc4)(Oc4cc5c(c(O)c43)C(=O)C[C@@H](c3ccccc3)O5)O2)O1 | 6.1
7 | O=C(O)CCC[C@@H]1C[C@@H]2C[C@@](/C=C/c3ccccc3)(Oc3cc4c(c(O)c32)C(=O)C[C@@H](c2ccccc2)O4)O1 | > 10
8 | O=C1CCC[C@@H]2C[C@H](C[C@](O)(/C=C/c3ccccc3)O2)c2c(cc(O)c3c2O[C@@H](c2ccc(O)cc2)CC3=O)O1 | 4.5
9 | O=C1C=CC[C@H](C[C@@H]2C[C@@H]3C[C@@](/C=C/c4ccccc4)(Oc4cc5c(c(O)c43)C(=O)C[C@@H](c3ccccc3)O5)O2)O1 | 7.2
